Results reported in PubChem BioAssay (NCI).
Where “and” joins values, the source holds several entries; their conditions need not be identical. Equal values may be shown once.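 In this assay, cells in 96-well plates receive the compound at five concentrations for 48 hours. Endpoints are linearly interpolated between the surrounding concentrations. GI50 is the concentration that inhibits growth by half. TGI marks complete inhibition of growth.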

system: MDA-MB-468 breast; assay: NCI tumour cell line growth inhibition, 48 h

SMILES	GI50	TGI
O=S1CCN(Cc2ccc(-c3ccc4ncnc(Nc5ccc(OCc6cccc(F)c6)c(Cl)c5)c4c3)o2)CC1	5.68 nM	46.6 nM
O=C(NCCCCNC(=O)OCc1ccc2c(Cl)cc(Cl)c(O)c2n1)OCc1ccc2c(Cl)cc(Cl)c(O)c2n1	532 nM	> 100000 nM
NS(=O)(=O)N(c1cc(C(F)(F)F)cc(C(F)(F)F)c1)C1CCN(Cc2ccc(F)cc2)CC1	1860 nM	4760 nM
C=C(C)C(=O)Oc1ccc(N=Nc2ccc(C)cc2)ccc1=O	2800 nM	11500 nM
CCCCNCC(O)c1cc2c(Cl)cc(Cl)cc2c2cc(C(F)(F)F)ccc12 (stereo unspecified)	1590 nM	3030 nM
Cc1ccc(C(=O)Nc2ccc(CNCCN3CCNCC3)c(C(F)(F)F)c2)cc1C#Cc1cnc2cccnn12	1650 nM	3300 nM
COc1ccc(/C=C(\C#N)c2ccc(OC)cc2)cc1	1610 nM	35000 nM
NC(N)=Nc1ccc(Oc2cccc(NC(N)=Nc3ccc(Cl)c(C(F)(F)F)c3)c2)cn1	1380 nM	3130 nM
COc1ccc(C2CC(c3cc(Cl)c(C)cc3O)=NN2c2ccc(S(N)(=O)=O)cc2)cc1OC (stereo unspecified)	2580 nM	9510 nM
O=C1/C(=C/c2ccc(Cl)cc2)COc2ccc(O)cc21	2060 nM	4550 nM
NCCOc1ncccc1/C=C1\c2ccccc2-c2ccc(F)cc21	1330 nM	2840 nM
CCN(Cc1ccncc1)c1ccc(CO)c(Cl)c1	35.4 nM	161 nM
O=C(CNc1nc(-c2cccc([N+](=O)[O-])c2)cs1)Nc1cccc([N+](=O)[O-])c1	1950 nM	4920 nM
Nc1cc2c([nH]c[n+]2CC#CCCl)c(SCC#CCCl)n1	734 nM	2400 nM
Cn1ncc2c(Sc3ccc(Cl)cc3)ncnc21	20700 nM	> 100000 nM
O=S1CCN(Cc2ccc(-c3ccc4ncnc(Nc5ccc(OCc6ccccc6)c(Cl)c5)c4c3)o2)CC1	44.9 nM	376 nM
COc1cc(-c2ccc3ncnc(NCc4ccccc4)c3c2)cnc1OC	1710 nM	4960 nM
Cc1cc(C)c(-c2cc(O)c(-c3c(C)cc(C)cc3C)cc2O)c(C)c1	1960 nM	8470 nM
CCCCCCCCc1ccc(OCCOCC[N+](C)(C)CC)cc1 (tested in a mixture with another compound)	430 nM	2320 nM
Cc1cc2c([nH]1)CSc1cc(S(=O)(=O)c3ccccc3)c(=O)[nH]c1-2	4530 nM	> 26100 nM
COc1cc(-c2n[nH]nc2-c2ccc3c(c2)OCCO3)cc(OC)c1OC	14.7 nM	30500 nM
COc1cc(C(=O)/C=C/c2ccc(OCCCCCC[P+](c3ccccc3)(c3ccccc3)c3ccccc3)cc2)cc(OC)c1OC	242 nM	705 nM

SMILES	GI50	TGI
CC(=O)c1nc2ccccc2n1CCN1CCN(C)CC1	1910 nM	> 22300 nM
Clc1ccc(CCC(Cn2ccnc2)Sc2c(Cl)cccc2Cl)cc1 (stereo unspecified)	2130 nM	7490 nM
Cn1cc(-c2nc3c(F)cc4[nH]ncc4c3c3c2CCCC3)c(C(F)(F)F)n1	6440 nM	33100 nM
C=C1C(=O)O[C@H]2[C@H]1CC/C(COC(=O)CCCCCCC(=O)OC/C1=C/CC[C@@]3(C)O[C@H]3[C@H]3OC(=O)C(=C)[C@@H]3CC1)=C\CC[C@@]1(C)O[C@@H]21	2160 nM	5440 nM
CCN1CCC(Oc2c(C#N)ncc3[nH]c4ncccc4c23)CC1	16000 nM	33300 nM
COc1ccc2nc(NNC(=O)c3cnccn3)c3cccn3c2c1	287 nM	1960 nM
COc1cc(/C=N/Nc2ncnc3[nH]ncc23)ccc1O	9900 nM	> 25000 nM
CCCCCCCCc1cc[n+](CC(=O)c2ccc(Br)cc2)cc1	1230 nM	2690 nM
FC(F)(F)c1ccc(-c2cnc(Cl)nc2NC2CCCCCC2)cc1	55800 nM	> 100000 nM
N#Cc1c(-c2ccccc2)cc(-c2ccccc2)n(CC(=O)NO)c1=O	3480 nM	14500 nM
COc1ccc(/C=C/c2nnc(/C=C/c3ccc(OC)c(OC)c3)o2)cc1OC	2880 nM	27500 nM
Cc1cc(-c2ncc(-c3cccnc3)cc2/C=C/c2ccccc2)cnc1-c1cccnc1	> 20500 nM	> 100000 nM
O=C(CCl)Nc1ccc2c(c1)C(=O)c1ccccc1C2=O	1760 nM	4080 nM
c1ccc(-c2c(-c3ccccc3)[n+](Cc3ccc4ccccc4c3)c(-c3cccc4ccccc34)n2Cc2ccc3ccccc3c2)cc1	47.3 nM	281 nM
CCCC(c1nnnn1C1CCCCC1)N1CCN(C(=O)c2ccco2)CC1 (stereo unspecified)	> 100000 nM	> 100000 nM
O=C1Nc2ccccc2/C1=C/C(=N/c1nnc(-c2ccccc2)s1)c1ccccc1	2710 nM	8100 nM
CC(C)(C)c1ccc(C(=O)Nc2sc3c(c2C#N)CCC(=O)C3)cc1	1330 nM	5280 nM
COc1ccc(Nc2nccc(Nc3ccc4[nH]ncc4c3)n2)cc1	1700 nM	4550 nM
COC1=CC(c2ccc[nH]2)=N/C1=C\c1[nH]c(C)c(C(=O)CCCCC(=O)NCc2ccccc2)c1C	2600 nM	7850 nM
CC(C)c1cc(C(=O)N2Cc3ccc(CN4CCN(C)CC4)cc3C2)c(O)cc1O	40.4 nM and 58.8 nM	3720 nM and 378 nM
COCC(=O)Oc1cc(-c2ccc(C)cc2C)c(OC(=O)COC)c(-c2ccc(C)cc2C)c1	2790 nM	14600 nM
